One test relates to vaccinia virus. Briefly: Plaque assay of vaccinia virus in BSC-40 cells. It is filed as cell-based.
Test [1] addresses tubulin. Particulars: literature values, refs [18], [12], [43]; read-out: dissociation constant (Kd) binding to tubulin; cited from earlier work.
Test [2] addresses T1, tubulin.
T1 construct: other: double reciprocal plots; 0-100 μM ligand, 2 μM tubulin, 45 min at
Briefly: Tubulin binding assay (fluorescence titration, quenching of intrinsic tubulin fluorescence). Details: species or system Mammalian. The note with it: double reciprocal plots; 0-100 μM ligand, 2 μM tubulin, 45 min at 37° C.; read-out: dissociation constant (Kd) binding to tubulin.

Read-outs that look alike come from different tables or passages of the source.

By Kd is commonly meant the equilibrium constant for the complex coming apart. On to `COc1ccc2c(c1OC)C(=O)O[C@@H]2[C@H]1c2c(c(Br)c3c(c2OC)OCO3)CCN1C` [9-Br-nos, (S)-6,7-dimethoxy-3-((R)-4-methoxy-6-methyl-9-bromo-5,6,7,8-tetrahydro-[1,3]dioxolo[4,5-g]isoquinolin-5-yl)isobenzofuran-1(3H)-one], for which, in the test with vaccinia virus, the “spread of vaccinia virus in BSC-40 cells” value is given as “inhibited”. In addition, in the test on vaccinia virus (25 uM in 0.1% DMSO), the prevention of infection entry is listed as “does not prevent infection”. Also, the plaque appearance entry in the test with vaccinia virus (25 uM in 0.1% DMSO, FIG. 1) is recorded as “only small “pinpoint” plaques are evident”. For the same compound, the Kd at tubulin [1] was 54 ± 9.1 µM.
As to `COc1ccc2c(c1OC)C(=O)O[C@@H]2[C@H]1c2c(c(F)c3c(c2OC)OCO3)CCN1C` [9-F-nos, (S)-6,7-dimethoxy-3-((R)-4-methoxy-6-methyl-9-fluoro-5,6,7,8-tetrahydro-[1,3]dioxolo[4,5-g]isoquinolin-5-yl)isobenzofuran-1(3H)-one], on tubulin [2], the Kd was 81 ± 8 µM.
For the compound `COc1ccc2c(c1OC)C(=O)O[C@@H]2[C@H]1c2c(cc3c(c2OC)OCO3)CCN1C` [noscapine, (S)-6,7-dimethoxy-3-((R)-4-methoxy-6-methyl-5,6,7,8-tetrahydro-[1,3]dioxolo[4,5-g]isoquinolin-5-yl)isobenzofuran-1(3H)-one], the Kd on tubulin [1] was 144 ± 2.8 µM.
Consider `COc1ccc2c(c1OC)C(=O)O[C@@H]2[C@H]1c2c(c(I)c3c(c2OC)OCO3)CCN1C` [9-I-nos, (S)-6,7-dimethoxy-3-((R)-4-methoxy-6-methyl-9-iodo-5,6,7,8-tetrahydro-[1,3]dioxolo[4,5-g]isoquinolin-5-yl)isobenzofuran-1(3H)-one], for which the Kd on tubulin [2] came out at 22 ± 4 µM.
Take `COc1ccc2c(c1OC)C(=O)O[C@@H]2[C@H]1c2c(c(Cl)c3c(c2OC)OCO3)CCN1C` [9-Cl-nos]: the Kd at tubulin [1] was 40 ± 8 µM.

These data come from patent publication US20110274651A1, “Noscapine and Noscapine Analogs and Their Use in treating Infectious Diseases by Tubulin Binding Inhibition” (priority 2008, published 2011).
